Test results published in article PMC7349874, “High Content Screening Using New U2OS Reporter Cell Models Identifies Harmol Hydrochloride as a Selective and Competitive Antagonist of the Androgen Receptor” (Cells, 2020).
Counter-ions that a name gives are not always drawn.

Key:
[1] = target: T1, full-length wild-type AR (hAR) (Homo sapiens, UniProt P10275); assay: Transactivation (luciferase) assay in U2OS-hAR-ARE-Luc reporter cells, screen and validation; format: cell-based; settings: for Results of 1st screen on AR: 0.3, 1, 3, 10 µM, 16 h, hit = AR transcriptional activity changed by more than 50% dose-dependently, <20% effect in control cells
T1 sequence (P10275 1-920): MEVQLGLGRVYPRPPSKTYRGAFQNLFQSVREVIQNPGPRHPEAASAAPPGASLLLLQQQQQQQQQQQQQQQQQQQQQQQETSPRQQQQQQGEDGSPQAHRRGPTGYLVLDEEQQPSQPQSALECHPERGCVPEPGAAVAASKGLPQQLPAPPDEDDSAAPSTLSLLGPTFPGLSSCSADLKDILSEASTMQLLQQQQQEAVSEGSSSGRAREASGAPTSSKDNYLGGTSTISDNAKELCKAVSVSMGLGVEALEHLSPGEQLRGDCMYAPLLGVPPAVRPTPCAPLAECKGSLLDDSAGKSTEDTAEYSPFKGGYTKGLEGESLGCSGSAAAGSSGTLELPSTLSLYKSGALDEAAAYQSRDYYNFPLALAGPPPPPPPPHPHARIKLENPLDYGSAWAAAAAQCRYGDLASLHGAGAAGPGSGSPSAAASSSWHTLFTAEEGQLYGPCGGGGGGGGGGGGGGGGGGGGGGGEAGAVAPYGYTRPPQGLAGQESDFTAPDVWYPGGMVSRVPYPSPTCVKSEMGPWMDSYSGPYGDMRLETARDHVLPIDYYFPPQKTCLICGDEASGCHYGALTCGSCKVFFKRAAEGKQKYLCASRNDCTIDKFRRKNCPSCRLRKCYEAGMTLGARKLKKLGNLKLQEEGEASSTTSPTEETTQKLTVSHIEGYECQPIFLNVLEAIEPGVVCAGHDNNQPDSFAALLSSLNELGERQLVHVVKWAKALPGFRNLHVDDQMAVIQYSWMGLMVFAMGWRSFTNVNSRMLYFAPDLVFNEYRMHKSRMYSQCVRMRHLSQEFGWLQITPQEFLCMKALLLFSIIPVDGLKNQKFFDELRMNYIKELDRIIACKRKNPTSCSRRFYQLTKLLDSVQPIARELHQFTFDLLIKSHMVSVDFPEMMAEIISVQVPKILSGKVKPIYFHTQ
Protocol: U2OS-hAR-ARE(Rad9)-Luc and U2OS-hARv7-ARE(PB)-Luc were then used to screen the Prestwick phytochemical library®, containing 320 natural compounds, at four concentrations (0.3, 1, 3, 10 µM) in duplicate.

[2] = target: T2, full-length AR (Homo sapiens, UniProt P10275); assay: Transactivation assay in DU145 cells transiently overexpressing full-length AR; format: cell-based; settings: 1 nM R1881
T2 sequence (P10275 1-920): T1 sequence (P10275 1-920)
From the text: transactivation assays as in Fig. 3.
performed in quadruplicate.
(§1) [Harmol Hydrochloride] (M)

[3] = test system: DU145 cells; assay: Spheroid growth (CellTiter-Glo), DU145; format: cell-based, human; settings: 7 days, AR negative cells
[4] = test system: PC3 cells; assay: Spheroid growth (CellTiter-Glo), PC3; format: cell-based, human; settings: 7 days, AR negative cells
[5] = test system: LNCaP spheroids; settings: 7 days, up to the highest concentrations used
Protocol: (§2) prostate cancer cells. GAPDH was used as a loading control.
(§3) Spheroids were treated for 7 days with the indicated concentrations of each drug, stained with PI (1 mg/mL) for 30 min and […] was evaluated using the Celigo® imaging system. Results are expressed as mortality ratios as compared to untreated spheroids (set at 1). Each point represent s the m ean ± SEM of 3 […]
(§4) Mortality (ratio/control)
as §1

[6] = test system: VCaP spheroids; settings: 7 days, up to the highest concentrations used
Protocol: as §2, §3, §4, §1

[7] = target: T3, mineralocorticoid receptor (MR) (Homo sapiens, UniProt P08235); assay: Transactivation assay in HG5LN MR cells; format: cell-based; settings: 16 h, 1 nM aldosterone, highest concentrations used (>1 µM)
T3 construct: expressed in transfected cells
T3 sequence (P08235 726-964 limits assumed): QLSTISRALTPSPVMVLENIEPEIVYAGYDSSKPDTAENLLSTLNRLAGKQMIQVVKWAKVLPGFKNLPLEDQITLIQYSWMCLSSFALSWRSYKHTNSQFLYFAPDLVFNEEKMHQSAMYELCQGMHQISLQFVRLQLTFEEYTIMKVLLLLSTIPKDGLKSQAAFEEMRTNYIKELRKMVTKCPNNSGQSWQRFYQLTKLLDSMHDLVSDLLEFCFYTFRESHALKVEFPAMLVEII
From the text: HG5LN MR and HG5LN PXR luciferase reporter cell lines were obtained by stable expression of individual ligand binding domains fused to GAL4 DNA binding domain in HG5LN (HeLa GAL4REx5-luciferase) cells, as previously described. HELN PR cells were obtained by stably expressing PR with the ERα DNA binding domain in HELN (HeLa ERE-luciferase) cells and HMLN GR cells were obtained by stable co-transfection of HeLa cells with a plasmid encoding for a glucocorticoid responsive gene (MMTV-Luc-SV-Neo) and a glucocorticoid receptor expressing plasmid, as previously described.
Agonistic activities were evaluated in HMLN GR, HELN PR, HG5LN MR, and HG5LN PXR cells, using dexamethasone 100 nM, R5020 100 nM, aldosterone 100 nM, and SR12813 3 μM as a positive control, respectively. […] RU486 was used as a control antagonist for GR and PR, and spironolactone for MR.
HMLN glucocorticoid receptor (GR), HG5LN mineralocorticoid receptor (MR), HELN progesterone receptor (PR) and HG5LN PXR cells were used to evaluate the antagonistic effect of the tested compounds on (A) the glucocorticoid receptor (GR), (B) the mineralocorticoid receptor (MR), (C) the progesterone receptor (PR) and (D) the agonistic activity towards the pregnane X receptor (PXR). […]

[8] = test system: AR target genes TMPRSS2, FKBP5, PSA; assay: RT-qPCR of AR target genes in VCaP cells; settings: 3 µM, 24 h, 1 nM R1881
Protocol: (§5) LNCaP and VCaP cells were seeded in 6-well plates (10^6 and 2 × 10^6 cells per well, respectively) and, 48 h later, complete medium was replaced by charcoal-stripped medium with 5% FBS. Cells were then treated for 24 h with the tested compounds, and RNA extraction was performed using the Quick RNA Miniprep kit (Zymo-Research, Irvine, CA, USA), according to the manufacturer’s protocol. Reverse transcription was performed with 0.5 µg total RNA using the SuperScript III reverse transcriptase kit (ThermoFisher, Waltham, MA, USA), according to the manufacturer’s protocol, in a final volume of 20 µL. The levels of genes transcripts were measured by real time PCR using a LightCycler 480 system (Roche Life Science, Penzberg, Germany) in the presence of SYBRGreen (SYBR® Premix Ex Taq^tm) and the following primers: FKBP5, sense 5′-[sequence]-3′; antisense 5′-[sequence]-3′; PSA, sense 5′-[sequence]-3′; antisense 5′-[sequence]-3′; TMPRSS2, sense 5′-[sequence]-3′, antisense 5′-[sequence]-3′; GR, sense 5′-[sequence]-3′, antisense 5′-[sequence]-3′; HPRT, sense 5′-[sequence]-3′; antisense 5′-[sequence]-3′; GAPDH, sense 5′-[sequence]-3′; antisense 5′-[sequence]-3′. Expression levels were evaluated with the ΔΔCt method and were normalized to GAPDH. Results are expressed as mRNA expression, relative to control (untreated cells), and are the mean ± SEM of 3 independent experiments.

[9] = test system: AR target genes TMPRSS2, FKBP5, PSA; assay: RT-qPCR of AR target genes in LNCaP cells; settings: 3 µM, 24 h, 1 nM R1881
Protocol: as §5

[10] = test system: U2OS-ARE-Luc control cells; assay: Luciferase activity in U2OS-ARE-Luc control cells; settings: validation, up to 3 µM, 16 h
[11] = test system: GR; assay: GR expression (RT-qPCR and Western blot) in VCaP cells; settings: 3 µM, 24 h, 1 nM R1881
Protocol: (§6) LNCaP and VCaP cells were seeded in 6-well plates (10^6 and 2 × 10^6 cells per well, respectively) and, 48 h later, complete medium was replaced by charcoal-stripped medium with 5% FBS. Cells were then treated for 24 h with the tested compounds, and RNA extraction was performed using the Quick RNA Miniprep kit (Zymo-Research, Irvine, CA, USA), according to the manufacturer’s protocol. Reverse transcription was performed with 0.5 µg total RNA using the SuperScript III reverse transcriptase kit (ThermoFisher, Waltham, MA, USA), according to the manufacturer’s protocol, in a final volume of 20 µL. The levels of genes transcripts were measured by real time PCR using a LightCycler 480 system (Roche Life Science, Penzberg, Germany) in the presence of SYBRGreen (SYBR® Premix Ex Taq^tm) and the following primers: FKBP5, sense 5′-[sequence]-3′; antisense 5′-[sequence]-3′; PSA, sense 5′-[sequence]-3′; antisense 5′-[sequence]-3′; TMPRSS2, sense 5′-[sequence]-3′, antisense 5′-[sequence]-3′; GR, sense 5′-[sequence]-3′, antisense 5′-[sequence]-3′; HPRT, sense 5′-[sequence]-3′; antisense 5′-[sequence]-3′; GAPDH, sense 5′-[sequence]-3′; antisense 5′-[sequence]-3′. Expression levels were evaluated with the ΔΔCt method and were normalized to GAPDH. Results are expressed as mRNA expression, relative to control (untreated cells), and are the mean ± SEM of 3 independent experiments. […]

[12] = test system: GR; assay: GR expression (RT-qPCR and Western blot) in LNCaP cells; settings: 3 µM, 24 h, 1 nM R1881
Protocol: as §6

[13] = listed as Harmol hydrochloride monohydrate

Cc1nccc2c1[nH]c1cc(O)ccc12 [harmol hydrochloride, Harmol hydrochloride monohydrate]
Nature of AR inhibition (competitive or non-competitive) ([1]; 1 nM versus 100 nM R1881): competitive antagonism
Results of 1st screen on AR [1, 13]: Inhibition
Results of 1st screen on AR ([1]; listed as harmol): active inhibitors of AR transcriptional activity
Results of confirmatory screen (validation of AR inhibition) [1, 13]: Confirmed
Results of confirmatory screen (validation of AR inhibition) ([1]; listed as harmol): could impair the transcriptional activity of AR
Inhibition of AR transactivation [2]: significant inhibition of AR transactivation
Growth of DU145 spheroids [3]: no effect
Growth of PC3 spheroids [4]: no effect
Cell death (propidium iodide positive cells) versus untreated spheroids [5]: did not significantly affect the number of propidium iodide positive cells
Cell death (propidium iodide positive cells) versus untreated spheroids [6]: did not significantly affect the number of propidium iodide positive cells
Antagonistic activity towards MR [7]: small antagonistic activity
Expression of the AR non-target gene HPRT [8]: unaffected
R1881-mediated expression of AR target genes TMPRSS2, FKBP5, PSA [8]: significant decrease
Expression of the AR non-target gene HPRT [9]: unaffected
R1881-mediated expression of AR target genes TMPRSS2, FKBP5, PSA [9]: significant decrease
Effect on luciferase activity in control cells [10]: no effect
Expression of GR at the mRNA and protein levels [11]: neither harmol nor enzalutamide treatment could significantly alter the expression of GR
Expression of GR at the mRNA and protein levels [12]: neither harmol nor enzalutamide treatment could significantly alter the expression of GR
